Results reported in patent US12240862B2, “Inhibitors of peptidylarginine deiminases” (Gilead Sciences, Inc., priority 2020, dated 2025).
pIC50: −log10 of the molar value.

molecular target: T1, human PAD4 (Homo sapiens, UniProt Q9UM07); assay: In vitro PAD4 BAEE biochemical assay; details: human PAD4, BAEE substrate; 5 nM PAD4, 2 mM calcium chloride, 3 mM BAEE; geometric mean of multiple experiments
T1 construct: human PAD4 (NM_012387), A2P663, was PCR amplified; His-SUMO (N, cleaved yes); made in house; host or cells: E. coli BL21(DE3)
Summary of the method: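 Tag-free recombinant hPAD4 (5 nM), 2 mM CaCl2, 3 mM BAEE, 50 mM MOPS pH 7.6, 2 mM DTT; 30 min compound preincubation, 2 h reaction, all 25 °C. EDTA quench; ammonia read via o-phthalaldehyde amine coupling, 1 h.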

T1 sequence (Q9UM07 2-663): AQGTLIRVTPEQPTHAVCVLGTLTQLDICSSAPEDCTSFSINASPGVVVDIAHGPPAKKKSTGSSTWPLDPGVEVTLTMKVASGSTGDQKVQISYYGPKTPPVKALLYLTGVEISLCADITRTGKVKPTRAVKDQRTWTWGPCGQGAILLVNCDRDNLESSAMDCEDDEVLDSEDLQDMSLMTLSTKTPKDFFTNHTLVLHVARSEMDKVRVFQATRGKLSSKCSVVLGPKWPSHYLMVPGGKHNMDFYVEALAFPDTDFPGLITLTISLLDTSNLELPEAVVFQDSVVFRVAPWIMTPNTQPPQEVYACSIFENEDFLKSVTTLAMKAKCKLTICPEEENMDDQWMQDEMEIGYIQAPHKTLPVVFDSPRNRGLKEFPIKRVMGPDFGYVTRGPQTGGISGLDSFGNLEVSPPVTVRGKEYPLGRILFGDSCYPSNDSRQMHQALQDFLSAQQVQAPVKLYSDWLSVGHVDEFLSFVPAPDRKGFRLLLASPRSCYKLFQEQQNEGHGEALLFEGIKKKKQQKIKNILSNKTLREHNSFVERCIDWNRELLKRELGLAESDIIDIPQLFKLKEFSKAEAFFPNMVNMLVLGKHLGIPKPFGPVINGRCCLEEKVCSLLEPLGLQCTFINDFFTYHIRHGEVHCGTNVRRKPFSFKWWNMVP

Row | SMILES | pIC50
1 | CCOC1C[C@@H]2CN(C(=O)c3cc(OC)n4c(C)c(-c5cc6ccc(N(C(F)F)S(C)(=O)=O)nc6n5CC5CC5)nc4c3)[C@H]1[C@@H]2N (stereo partly drawn) [Example 371, N-[2-[7-[(1S,4R,7R)-7-amino-6-ethoxy-2-azabicyclo[2.2.1]heptane-2-carbonyl]-5-methoxy-3-methyl-imidazo[1,2-a]pyridin-2-yl]-1-(cyclopropylmethyl)pyrrolo [2,3-b]pyridin-6-yl]-N-(difluoromethyl) methanesulfonamide] | 4.97
2 | COc1cc(C(=O)N2C[C@H]3C[C@H](OC)[C@@H]2[C@@H]3N)cc2nc(-c3cc4ccc(N(C(F)F)S(C)(=O)=O)nc4n3CC3CC3)c(C)n12 [Example 372, N-[2-[7-[(1S,4R,6S,7R)-7-amino-6-methoxy-2-azabicyclo[2.2.1]heptane-2-carbonyl]-5-methoxy-3-methyl-imidazo [1,2-a]pyridin-2-yl]-1-(cyclopropylmethyl)pyrrolo [2,3-b]pyridin-6-yl]-N-(difluoromethyl) methanesulfonamide] | 5.70
3 | COc1cc(C(=O)N2C[C@@H]3CC[C@H]2[C@@H](N)C3)cc2nc(-c3cc4ccc(N(C(F)F)S(C)(=O)=O)nc4n3CC3CC3)c(C)n12 [Example 375, ~{N}-[2-[7-[(1~{S},4~{R}, 6~{S})-6-amino-2-azabicyclo[2.2.2]octane-2-carbonyl]-5-methoxy-3-methylimidazo[1,2-a]pyridin-2-yl]-1-(cyclopropylmethyl)pyrrolo [2,3-b]pyridin-6-yl]-~{N}-(difluoromethyl) methanesulfonamide] | 5.56
4 | COc1cc(C(=O)N2C[C@H]3CC[C@@H]2[C@H](N)C3)cc2nc(-c3cc4ccc(N(C(F)F)S(C)(=O)=O)nc4n3CC3CC3)c(C)n12 [Example 376, ~{N}-[2-[7-[(1~{R},4~{S}, 6~{R})-6-amino-2-azabicyclo[2.2.2]octane-2-carbonyl]-5-methoxy-3-methylimidazo[1,2-a]pyridin-2-yl]-1-(cyclopropylmethyl)pyrrolo [2,3-b]pyridin-6-yl]-~{N}-(difluoromethyl) methanesulfonamide] | 6.39
5 | COc1cc(C(=O)N2C[C@@H]3CC[C@H]2[C@H](N)C3)cc2nc(-c3cc4ccc(N(C(F)F)S(C)(=O)=O)nc4n3CC3CC3)c(C)n12 [Example 377, ~{N}-[2-[7-[(1~{R},4~{S}, 6~{R})-6-amino-2-azabicyclo[2.2.2]octane-2-carbonyl]-5-methoxy-3-methylimidazo[1,2-a]pyridin-2-yl]-1-(cyclopropylmethyl)pyrrolo [2,3-b]pyridin-6-yl]-~{N}-(difluoromethyl) methanesulfonamide] | 4.74
6 | COc1cc(C(=O)N2C[C@H]3C[C@H](O)[C@@H]2[C@@H]3N)cc2nc(-c3cc4ccc(N(C(F)F)S(C)(=O)=O)nc4n3CC3CC3)c(C)n12 [Example 378, N-[2-[7-[(1S,4R,6S,7R)-7-amino-6-hydroxy-2-azabicyclo[2.2.1]heptane-2-carbonyl]-5-methoxy-3-methyl-imidazo [1,2-a]pyridin-2-yl]-1-(cyclopropylmethyl)pyrrolo [2,3-b]pyridin-6-yl]-N-(difluoromethyl) methanesulfonamide] | 6.47
7 | COc1cc(C(=O)N2CCC3(CNC3)C2)cc2nc(-c3cc4ccc(N(C(F)F)S(C)(=O)=O)nc4n3CC3CC3)c(C)n12 [Example 380, ~{N}-[1-(cyclopropylmethyl)-2-[7-(2,6-diazaspiro[3.4]octane-6-carbonyl)-5-methoxy-3-methylimidazo[1,2-a]pyridin-2-yl]pyrrolo[2,3-b]pyridin-6-yl]-~{N}-(difluoromethyl) methanesulfonamide] | 4.61
8 | COc1cc(C(=O)N2C[C@H]3CC[C@@H]2[C@H](N)C3)cc2nc(-c3cc4ccc(N(C(F)F)S(C)(=O)=O)nc4n3CC3CC3)c(C)n12 [Example 381, ~{N}-[2-[7-[(1~{R},4~{S}, 6~{R})-6-amino-2-azabicyclo[2.2.2]octane-2-carbonyl]-5-methoxy-3-methylimidazo[1,2-a]pyridin-2-yl]-1-(cyclopropylmethyl)pyrrolo [2,3-b]pyridin-6-yl]-~{N}-(difluoromethyl) methanesulfonamide] | 6.27
9 | COc1cc(C(=O)N2[C@@H]3CC[C@@H](N)[C@H]2CC3)cc2nc(-c3cc4ccc(N(C(F)F)S(C)(=O)=O)nc4n3CC3CC3)c(C3CC3)n12 [Example 382, ~{N}-[2-[7-[(1~{R},2~{R}, 5~{R})-2-amino-8-azabicyclo[3.2.1]octane-8-carbonyl]-3-cyclopropyl-5-methoxyimidazo[1,2-a]pyridin-2-yl]-1-(cyclopropylmethyl)pyrrolo [2,3-b]pyridin-6-yl]-~{N}-(difluoromethyl) methanesulfonamide] | 6.69
10 | COc1cc(C(=O)N2CC[C@H]3OCCN[C@H]3C2)cc2nc(-c3cc4ccc(N(C(F)F)S(C)(=O)=O)nc4n3CC3CC3)c(C)n12 [Example 383, ~{N}-[2-[7-[(4~{a}~{S},8~{a}~{R})-2,3,4,4~{a},5,7,8,8~{a}-octahydropyrido[4,3-b][1,4]oxazine-6-carbonyl]-5-methoxy-3-methylimidazo[1,2-a]pyridin-2-yl]-1-(cyclopropylmethyl)pyrrolo[2,3-b]pyridin-6-yl]-~{N}-(difluoromethyl) methanesulfonamide] | 6.35
11 | COc1cc(C(=O)N2CC[C@H]3OCCN[C@H]3C2)cc2nc(-c3cc4ccc(N(C(F)F)S(C)(=O)=O)nc4n3CC3CC3)c(C3CC3)n12 [Example 384, ~{N}-[2-[7-[(4~{a}~{S},8~{a}~{R})-2,3,4,4~{a},5,7,8,8~{a}-octahydropyrido[4,3-b][1,4]oxazine-6-carbonyl]-3-cyclopropyl-5-methoxyimidazo[1,2-a]pyridin-2-yl]-1-(cyclopropylmethyl)pyrrolo [2,3-b]pyridin-6-yl]-~{N}-(difluoromethyl) methanesulfonamide] | 6.05
12 | COc1cc(C(=O)N2[C@H]3CC[C@@H]2[C@H](N)C3)cc2nc(-c3cc4ccc(N(C(F)F)S(C)(=O)=O)nc4n3CC3CC3)c(C3CC3)n12 [Example 385, ~{N}-[2-[7-[(1~{R},2~{R}, 4~{S})-2-amino-7-azabicyclo[2.2.1]heptane-7-carbonyl]-3-cyclopropyl-5-methoxyimidazo[1,2-a]pyridin-2-yl]-1-(cyclopropylmethyl)pyrrolo [2,3-b]pyridin-6-yl]-~{N}-(difluoromethyl) methanesulfonamide] | 6.81
13 | CS(=O)(=O)N(c1ccc2cc(-c3nc4cc(C(=O)N5[C@H]6CC[C@@H]5[C@H](N)C6)ccn4c3C3CC3)n(CC3CC3)c2n1)C(F)F [Example 386, ~{N}-[2-[7-[(1~{R},2~{R}, 4~{S})-2-amino-7-azabicyclo[2.2.1]heptane-7-carbonyl]-3-cyclopropylimidazo [1,2-a]pyridin-2-yl]-1-(cyclopropylmethyl)pyrrolo [2,3-b]pyridin-6-yl]-~{N}-(difluoromethyl) methanesulfonamide] | 6.90
14 | CSc1cc(C(=O)N2CCC[C@@H](N)C2)cc2nc(-c3cc4ccc(N(C(F)F)S(C)(=O)=O)nc4n3CC3CC3)c(C)n12 [Example 387, ~{N}-[2-[7-[(3~{R})-3-aminopiperidine-1-carbonyl]-3-methyl-5-methylsulfanylimidazo[1,2-a]pyridin-2-yl]-1-(cyclopropylmethyl)pyrrolo [2,3-b]pyridin-6-yl]-~{N}-(difluoromethyl) methanesulfonamide] | 6.11
15 | COc1cc(C(=O)N2CCC[C@@H](N)C2)cc2nc(-c3cc4ccc(N(C(F)F)S(C)(=O)=O)nc4n3CC3CC3)c(C)n12 [Example 388, ~{N}-[2-[7-[(3~{R})-3-aminopiperidine-1-carbonyl]-5-methoxy-3-methylimidazo [1,2-a]pyridin-2-yl]-1-(cyclopropylmethyl)pyrrolo [2,3-b]pyridin-6-yl]-~{N}-(difluoromethyl) methanesulfonamide] | 7.02
16 | COc1cc(C(=O)N2[C@H]3CC[C@@H]2[C@H](N)C3)cc2nc(-c3cc4ccc(N(C(F)F)S(C)(=O)=O)nc4n3CC3CC3)c(C)n12 [Example 389, N-(2-(7-((1R,2R,4S)-2-amino-7-azabicyclo[2.2.1]heptane-7-carbonyl)-5-methoxy-3-methylimidazo[1,2-a]pyridin-2-yl)-1-(cyclopropylmethyl)-1H-pyrrolo[2,3-b]pyridin-6-yl)-N-(difluoromethyl)methanesulfonamide] | 7.07
17 | C=CCN[C@@H]1CC[C@@H]2CC[C@H]1N2C(=O)c1cc(OC)n2c(C)c(-c3cc4ccc(N(C(F)F)S(C)(=O)=O)nc4n3CC3CC3)nc2c1 [Example 390, ~{N}-[1-(cyclopropylmethyl)-2-[5-methoxy-3-methyl-7-[(1~{R},2~{R},5~{R})-2-(prop-2-enylamino)-8-azabicyclo[3.2.1]octane-8-carbonyl]imidazo[1,2-a]pyridin-2-yl]pyrrolo [2,3-b]pyridin-6-yl]-~{N}-(difluoromethyl) methanesulfonamide] | 5.42
18 | COc1cc(C(=O)N2CCC[C@@H](N)C2)cc2nc(-c3cc4ccc(N(C(F)F)S(C)(=O)=O)nc4n3CC3CC3)c(C3CC3)n12 [Example 391, ~{N}-[2-[7-[(3~{R})-3-aminopiperidine-1-carbonyl]-3-cyclopropyl-5-methoxyimidazo [1,2-a]pyridin-2-yl]-1-(cyclopropylmethyl)pyrrolo [2,3-b]pyridin-6-yl]-~{N}-(difluoromethyl) methanesulfonamide] | 6.98
19 | CS(=O)(=O)N(c1ccc2cc(-c3nc4cc(C(=O)N5CCC[C@@H](N)C5)c(F)cn4c3C3CC3)n(CC3CC3)c2n1)C(F)F [Example 392, ~{N}-[2-[7-[(3~{R})-3-aminopiperidine-1-carbonyl]-3-cyclopropyl-6-fluoroimidazo [1,2-a]pyridin-2-yl]-1-(cyclopropylmethyl)pyrrolo [2,3-b]pyridin-6-yl]-~{N}-(difluoromethyl) methanesulfonamide] | 6.83
